Laboratory results: the supplement of paper PMC11061612

Columns and labels:
Test in all cases: combination Emax (second highest fraction inhibited in the dose matrix, 72 h); higher = more inhibition; extreme values may be limits of the assay
[1] = tested on: MV-4-11 (Acute Myeloid Leukemia)
Summary of the method: (§1)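 Cell lines grown in DMEM/F12 or RPMI with 10% FBS were plated in 1536-well plates and held 24 hours at 37°C, 5% CO2 before 72 hours of exposure to two-drug dose matrices, with DMSO typically at 0.2%. CellTiter-Glo 2.0 luminescence gave viability, which was converted to inhibition. Vehicle wells were set to 0 and blank wells to 1. Combination Emax is the second-highest inhibition in the matrix, and Bliss excess is the observed combination effect minus the expected EA + EB − EA·EB, where EA and EB are the single-agent effects.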

[2] = tested on: KOPN-8 (B-Lymphoblastic Leukemia)
Summary of the method: as §1

[3] = tested on: OACM5-1 (Esophageal Adenocarcinoma)
Summary of the method: as §1

[4] = tested on: Hey (Ovarian Carcinoma)
Summary of the method: as §1

[5] = tested on: ML-2 (Acute Myeloid Leukemia)
Summary of the method: as §1

[6] = tested on: HAL-01 (B-Lymphoblastic Leukemia)
Summary of the method: as §1

[7] = tested on: ME-180 (Cervical Carcinoma)
Summary of the method: as §1

[8] = tested on: KMRC-1 (Kidney Carcinoma)
Summary of the method: as §1

[9] = tested on: COLO-679 (Melanoma)
Summary of the method: as §1

[10] = tested on: KGN (Other Solid Carcinomas)
Summary of the method: as §1

[11] = tested on: NCI-H1993 (Lung Adenocarcinoma)
Summary of the method: as §1

[12] = tested on: EW-1 (Ewing's Sarcoma)
Summary of the method: as §1

[13] = tested on: CADO-ES1 (Ewing's Sarcoma)
Summary of the method: as §1

[14] = tested on: NCI-H650 (Lung Adenocarcinoma)
Summary of the method: as §1

[15] = tested on: HCC2998 (Colorectal Carcinoma)
Summary of the method: as §1

[16] = tested on: MOLT-4 (T-Lymphoblastic Leukemia)
Summary of the method: as §1

[17] = tested on: ALL-SIL (T-Lymphoblastic Leukemia)
Summary of the method: as §1

[18] = tested on: A4-Fuk (B-Lymphoblastic Leukemia)
Summary of the method: as §1

[19] = tested on: MDA-MB-453 (Breast Carcinoma)
Summary of the method: as §1

[20] = tested on: Mo-T (Other Blood Carcinomas)
Summary of the method: as §1

| SMILES | combination Emax [1] | combination Emax [2] | combination Emax [3] | combination Emax [4] | combination Emax [5] | combination Emax [6] | combination Emax [7] | combination Emax [8] | combination Emax [9] | combination Emax [10] | combination Emax [11] | combination Emax [12] | combination Emax [13] | combination Emax [14] | combination Emax [15] | combination Emax [16] | combination Emax [17] | combination Emax [18] | combination Emax [19] | combination Emax [20] |
| --- | --- | --- | --- | --- | --- | --- | --- | --- | --- | --- | --- | --- | --- | --- | --- | --- | --- | --- | --- | --- |
| CC1(C)CCC(CN2CCN(c3ccc(C(=O)NS(=O)(=O)c4ccc(NCC5CCOCC5)c([N+](=O)[O-])c4)c(Oc4cnc5[nH]ccc5c4)c3)CC2)=C(c2ccc(Cl)cc2)C1 [Venetoclax] + CCN(CCO)CCCOc1ccc2c(Nc3cc(CC(=O)Nc4cccc(F)c4)[nH]n3)ncnc2c1 [AZD2811] (first compound max 1 µM, 7x7, partner max 1 µM) | 1 | 0.974 | 0.421 | 0.266 | 0.998 | 0.959 | 0.243 | 0.158 | 0.133 | 0.509 | 0.232 | 0.365 | 0.755 | 0.178 | 0.121 | 1 | 1 | 0.748 | 0.211 | 0.611 |
| C[C@@H]1COCCN1c1cc(C2([S@](C)(=N)=O)CC2)nc(-c2ccnc3[nH]ccc23)n1 [AZD6738] + O=C(c1cc(Cc2n[nH]c(=O)c3ccccc23)ccc1F)N1CCN(C(=O)C2CC2)CC1 [Olaparib] (first compound max 10 µM, 7x7, partner max 10 µM) | 0.985 | 0.876 | 0.518 | 0.699 | 0.955 | 0.982 | 0.425 | 0.566 | 0.661 | 0.828 | 0.549 | 0.898 | 0.915 | 0.193 | 0.811 | 1 | 0.95 | 0.706 | 0.794 | 0.552 |
| CC1(C)CCC(CN2CCN(c3ccc(C(=O)NS(=O)(=O)c4ccc(NCC5CCOCC5)c([N+](=O)[O-])c4)c(Oc4cnc5[nH]ccc5c4)c3)CC2)=C(c2ccc(Cl)cc2)C1 [Venetoclax] + C[C@@H](Nc1cc(F)cc(F)c1)c1cc(C(=O)N(C)C)cc2c(=O)cc(N3CCOCC3)oc12 [AZD8186] (first compound max 1 µM, 7x7, partner max 3 µM) | 1 | 0.829 | 0.495 | 0.139 | 0.983 | 0.988 | 0.129 | 0.532 | 0.273 | 0.333 | 0.296 | 0.303 | 0.625 | 0.142 | 0.145 | 0.422 | 0.637 | 0.655 | 0.703 | 0.632 |
| CC(=O)Nc1cccc(-n2c(=O)n(C3CC3)c(=O)c3c(Nc4ccc(I)cc4F)n(C)c(=O)c(C)c32)c1 [Trametinib] + Cc1nc(-c2cn3c(n2)-c2ccc(-c4cnn(C(C)(C)C(N)=O)c4)cc2OCC3)n(C(C)C)n1 [Taselisib] (first compound max 1 µM, 7x7, partner max 10 µM) | 0.848 | 0.635 | 0.82 | 0.893 | 0.968 | 0.687 | 0.714 | 0.748 | 0.856 | 0.807 | 0.898 | 0.761 | 0.245 | 0.705 | 0.928 | 0.859 | 0.831 | 1 | 0.798 | 0.524 |
| COc1nnc2ccc(N3CCC(c4ccc(OCCN5CCN(C)C(=O)[C@H]5C)cc4)CC3)nn12 [AZD5153] + C=CCn1c(=O)c2cnc(Nc3ccc(N4CCN(C)CC4)cc3)nc2n1-c1cccc(C(C)(C)O)n1 [AZD1775] (first compound max 1 µM, partner max 1 µM) | 1 | 1 | 0.869 | 0.655 | 1 | 0.88 | 0.68 | 0.358 | 0.505 | 0.781 | 0.545 | 0.883 | 0.387 | 0.487 | 0.92 | 1 | 0.98 | 0.967 | 0.731 | 0.729 |
| CC1(C)CCC(CN2CCN(c3ccc(C(=O)NS(=O)(=O)c4ccc(NCC5CCOCC5)c([N+](=O)[O-])c4)c(Oc4cnc5[nH]ccc5c4)c3)CC2)=C(c2ccc(Cl)cc2)C1 [Venetoclax] + Cc1cc2ncnn2cc1Nc1ncc2c(n1)n(C1CCOCC1)c(=O)n2C [AZD7648] (first compound max 1 µM, 7x7, partner max 10 µM) | 1 | 0.739 | 0.495 | 0.328 | 0.823 | 0.881 | 0.268 | 0.181 | 0.133 | 0.471 | 0.541 | 0.418 | 0.703 | 0.197 | 0.109 | 0.445 | 0.658 | 0.667 | 0.198 | 0.616 |
